Results: ChEMBL document CHEMBL5154770, “Discovery of novel ataxia telangiectasia mutated (ATM) kinase modulators: Computational simulation, biological evaluation and cancer combinational chemotherapy study” (Eur J Med Chem, 2022)
Active and inactive are the calls of the source. The rule behind the calls is not given here.

How the values were obtained:
[1] = tested on: HEK293; experiment: Cytotoxicity against human HEK293 cells at 100 uM; format: toxicity, cell-based; settings: hek293, 100 µM
[2] = tested on: MCF7; experiment: Antiproliferative activity against human MCF7 cells measured after 2 days by SRB assay; format: functional, cell-based; settings: MCF7, 48 h
[3] = tested on: SW480; experiment: Antiproliferative activity against human SW480 cells measured after 3 days by SRB assay; format: functional, cell-based; settings: SW480, 72 h
[4] = tested on: MDCK; experiment: Cytotoxicity against dog MDCK cells at 100 uM; format: toxicity, cell-based, Canis lupus familiaris
[5] = target: T1, Serine-protein kinase ATM (Homo sapiens, UniProt Q13315); experiment: Competitive inhibition of ATM (unknown origin) measured by ATP-competitive binding assay
T1 sequence (Q13315 whole entry): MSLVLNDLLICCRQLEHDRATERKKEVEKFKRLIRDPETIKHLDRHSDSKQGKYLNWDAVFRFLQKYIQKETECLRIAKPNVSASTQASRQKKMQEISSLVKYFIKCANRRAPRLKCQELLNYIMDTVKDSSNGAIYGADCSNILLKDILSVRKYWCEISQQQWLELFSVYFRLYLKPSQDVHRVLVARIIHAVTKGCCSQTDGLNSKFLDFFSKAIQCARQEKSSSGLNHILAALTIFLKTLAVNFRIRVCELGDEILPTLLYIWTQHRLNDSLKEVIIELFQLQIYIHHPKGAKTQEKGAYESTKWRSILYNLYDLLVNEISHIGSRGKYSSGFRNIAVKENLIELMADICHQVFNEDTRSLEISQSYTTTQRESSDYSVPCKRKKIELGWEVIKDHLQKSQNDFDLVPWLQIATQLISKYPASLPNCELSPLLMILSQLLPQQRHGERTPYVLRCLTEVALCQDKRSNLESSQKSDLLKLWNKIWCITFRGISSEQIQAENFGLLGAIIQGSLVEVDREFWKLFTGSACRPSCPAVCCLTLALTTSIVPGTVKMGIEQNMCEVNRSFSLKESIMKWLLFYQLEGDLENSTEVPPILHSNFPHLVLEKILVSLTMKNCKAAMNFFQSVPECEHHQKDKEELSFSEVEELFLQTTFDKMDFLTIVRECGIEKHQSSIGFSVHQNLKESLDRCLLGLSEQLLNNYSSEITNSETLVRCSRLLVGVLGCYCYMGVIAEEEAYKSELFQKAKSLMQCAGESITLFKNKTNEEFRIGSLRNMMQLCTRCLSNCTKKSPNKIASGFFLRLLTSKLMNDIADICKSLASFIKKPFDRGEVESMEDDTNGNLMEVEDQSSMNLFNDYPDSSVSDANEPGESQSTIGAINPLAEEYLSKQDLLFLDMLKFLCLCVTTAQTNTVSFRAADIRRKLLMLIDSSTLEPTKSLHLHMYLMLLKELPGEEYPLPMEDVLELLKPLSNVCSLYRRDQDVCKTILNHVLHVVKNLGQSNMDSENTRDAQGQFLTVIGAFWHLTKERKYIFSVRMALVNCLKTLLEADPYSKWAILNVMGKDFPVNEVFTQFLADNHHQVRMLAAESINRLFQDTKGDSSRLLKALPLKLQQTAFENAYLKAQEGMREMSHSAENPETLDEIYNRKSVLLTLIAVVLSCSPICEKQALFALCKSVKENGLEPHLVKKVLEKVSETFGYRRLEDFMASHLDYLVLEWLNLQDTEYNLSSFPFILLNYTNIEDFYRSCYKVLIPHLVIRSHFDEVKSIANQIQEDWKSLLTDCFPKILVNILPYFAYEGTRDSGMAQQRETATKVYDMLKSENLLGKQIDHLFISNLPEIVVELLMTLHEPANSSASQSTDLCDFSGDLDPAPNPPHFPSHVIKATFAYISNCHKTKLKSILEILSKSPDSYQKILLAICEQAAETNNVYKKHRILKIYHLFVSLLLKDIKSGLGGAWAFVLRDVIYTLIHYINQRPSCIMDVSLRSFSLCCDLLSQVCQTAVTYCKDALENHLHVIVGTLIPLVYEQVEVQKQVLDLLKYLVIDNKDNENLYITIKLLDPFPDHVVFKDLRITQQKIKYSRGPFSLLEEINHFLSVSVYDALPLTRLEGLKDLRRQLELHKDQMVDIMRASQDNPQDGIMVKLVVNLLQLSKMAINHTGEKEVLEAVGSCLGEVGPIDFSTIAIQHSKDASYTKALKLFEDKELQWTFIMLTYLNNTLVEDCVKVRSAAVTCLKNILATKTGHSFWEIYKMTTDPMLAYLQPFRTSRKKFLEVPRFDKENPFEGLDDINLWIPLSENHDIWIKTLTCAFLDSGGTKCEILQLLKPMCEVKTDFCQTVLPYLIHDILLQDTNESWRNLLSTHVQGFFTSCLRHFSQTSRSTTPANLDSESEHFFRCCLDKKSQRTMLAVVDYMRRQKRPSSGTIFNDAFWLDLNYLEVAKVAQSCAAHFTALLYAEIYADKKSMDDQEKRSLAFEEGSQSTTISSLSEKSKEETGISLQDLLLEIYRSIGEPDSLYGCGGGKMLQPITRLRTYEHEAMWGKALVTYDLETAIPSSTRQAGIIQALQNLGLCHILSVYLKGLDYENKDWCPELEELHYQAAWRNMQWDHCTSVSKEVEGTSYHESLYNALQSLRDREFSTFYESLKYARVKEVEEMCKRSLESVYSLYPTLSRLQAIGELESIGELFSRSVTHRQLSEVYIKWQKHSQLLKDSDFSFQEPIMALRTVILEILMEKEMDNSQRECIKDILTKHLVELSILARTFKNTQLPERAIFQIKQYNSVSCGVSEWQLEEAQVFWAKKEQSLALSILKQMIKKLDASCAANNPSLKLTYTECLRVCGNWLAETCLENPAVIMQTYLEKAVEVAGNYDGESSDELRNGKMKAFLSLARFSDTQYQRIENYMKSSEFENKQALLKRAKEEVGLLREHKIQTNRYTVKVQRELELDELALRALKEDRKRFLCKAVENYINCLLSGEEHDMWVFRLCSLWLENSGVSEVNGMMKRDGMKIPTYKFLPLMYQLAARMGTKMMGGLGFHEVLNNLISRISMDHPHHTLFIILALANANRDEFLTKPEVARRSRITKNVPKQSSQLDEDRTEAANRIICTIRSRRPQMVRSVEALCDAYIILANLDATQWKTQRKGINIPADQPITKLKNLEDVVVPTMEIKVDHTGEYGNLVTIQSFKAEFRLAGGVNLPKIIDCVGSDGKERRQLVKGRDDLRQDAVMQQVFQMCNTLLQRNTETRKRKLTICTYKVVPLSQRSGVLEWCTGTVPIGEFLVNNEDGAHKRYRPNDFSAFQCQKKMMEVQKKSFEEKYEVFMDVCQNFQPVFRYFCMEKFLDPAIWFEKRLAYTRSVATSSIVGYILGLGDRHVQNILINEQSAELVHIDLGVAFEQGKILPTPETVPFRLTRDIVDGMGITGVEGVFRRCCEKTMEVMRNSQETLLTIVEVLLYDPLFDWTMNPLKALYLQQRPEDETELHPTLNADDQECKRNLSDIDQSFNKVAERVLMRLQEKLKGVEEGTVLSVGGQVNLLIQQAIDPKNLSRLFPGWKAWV

[6] = target: T1, Serine-protein kinase ATM; experiment: Inhibition of ATM in human MCF7 cells assessed as increase in pKAP1 level at 12.5 to 18 uM measured by western blot analysis; format: cell-based; settings: dose 12.5-18 µM
[7] = tested on: SW480; experiment: Antiproliferative activity against human SW480 cells measured after 9 days by SRB assay; format: functional, cell-based; settings: SW480, 216 h
[8] = tested on: MCF7; experiment: Antiproliferative activity against human MCF7 cells measured after 6 days by SRB assay; format: functional, cell-based; settings: MCF7, 144 h
[9] = target: T1, Serine-protein kinase ATM; experiment: Inhibition of ATM in human MCF7 cells assessed as decrease in pKAP-1 level measured by In-cell western assay; format: cell-based
[10] = Toxicity in BALB/c nude mouse xenografted with human SW480 cells assessed as effect on body weight at 30 mg/kg, iv; format: organism-based; settings: in vivo
[11] = target: T1, Serine-protein kinase ATM; experiment: Binding affinity towards ATM (unknown origin) assessed as increase in thermal stability of ATM at 30 uM measured by thermal shift assay
[12] = target: T1, Serine-protein kinase ATM; experiment: Inhibition of ATM in human MCF7 cells assessed as increase in pATM level at 12.5 to 18 uM measured by western blot analysis; format: cell-based; settings: dose 12.5-18 µM
[13] = tested on: MCF7; experiment: Antiproliferative activity against human MCF7 cells assessed as growth inhibition at 100 uM measured after 2 days by SRB assay; format: functional; settings: MCF7, 48 h, time 2 day, read-out: GI
[14] = target: T1, Serine-protein kinase ATM; experiment: Activation of ATM in human MCF7 cells assessed as increase in pKAP-1 level at 0.001 to 100 uM measured by In-cell western assay; format: cell-based; settings: filed as activator, dose 0.001-100 µM
[15] = target: T1, Serine-protein kinase ATM; experiment: Activation of ATM in human MCF7 cells assessed as increase in pKAP1 level at 30 uM in presence of 25 uM etoposide measured by western blot analysis; format: cell-based; settings: filed as activator
[16] = tested on: SW480; experiment: Antiproliferative activity against human SW480 cells assessed as growth inhibition at 100 uM measured after 3 days by SRB assay; format: functional; settings: SW480, 72 h, time 3 day, read-out: GI
[17] = target: T1, Serine-protein kinase ATM; experiment: Activation of ATM in human MCF7 cells assessed as increase in pATM level at 30 uM in presence of 25 uM etoposide measured by western blot analysis; format: cell-based; settings: filed as activator

| SMILES | Activity [1] | IC50 [2] | IC50 [3] | Activity [4] | further results |
| --- | --- | --- | --- | --- | --- |
| O=c1cc(-c2cccc3c2Sc2ccccc2S3)oc(N2CCOCC2)c1 [KU-55933] | Non-Toxic | 24.8 µM | 26.5 µM | Non-Toxic | – |
| CNC(=O)c1ccc(-c2cnc3cnc(-c4ccccc4)cn23)cc1 | – | – | – | – | IC50 [5]: 0.31 µM |
| OCCNCc1c(OCc2ccc(Cl)cc2Cl)ccc2ccccc12 | Non-Toxic | 6.3 µM | 4.9 µM | Non-Toxic | inhibition [6]: Active; IC50 [7]: 5.5 µM; IC50 [8]: 21.3 µM; IC50 [9]: 33.4 µM; Activity [10]: Non-Toxic; Activity [11]: Active; inhibition [12]: Active |
| COc1ccc(C(=O)NC(=S)Nc2cccc(-c3nc4ncccc4o3)c2)cc1Cl | Non-Toxic | > 100 µM | > 100 µM | Non-Toxic | inhibition of growth at 100 µM [13]: < 20%; Activity [14]: Active; Activity [15]: Active; inhibition of growth at 100 µM [16]: < 20%; Activity ([11]; filed as activator): Active; Activity [17]: Active |
| C[C@@H]1CN(CC(=O)Nc2ccc3c(c2)Cc2cccc(-c4cc(=O)cc(N5CCOCC5)o4)c2S3)C[C@H](C)O1 | Non-Toxic | 11.9 µM | 13.3 µM | Non-Toxic | IC50 [7]: 3.3 µM; IC50 [8]: 2.8 µM |
| CN(C)CCCOc1ccc(-c2ccc3ncc4c(c3c2)n(C2CCOCC2)c(=O)n4C)cn1 | Non-Toxic | 0.6 µM | 1.1 µM | Non-Toxic | – |
| CCN(CC)CCCC(C)Nc1ccnc2cc(Cl)ccc12 (stereo not drawn) [CHLOROQUINE] | – | 13.2 µM | 14.7 µM | – | – |
